According to patent US20250250251A1, “PIPERIDINYLPYRIDINYLCARBONITRILE DERIVATIVES AS INHIBITORS OF GLUTAMINYL-PEPTIDE CYCLOTRANSFERASE AND GLUTAMINYL-PEPTIDE CYCLOTRANSFERASE LIKE PROTEIN” (Boehringer Ingelheim International GmbH, priority 2024, published 2025):
Where two headings read alike, the source gives them in different places.

Legend:
QPCT = target: T1, QPCT (Homo sapiens, UniProt Q16769); assay: Assay A: biochemical QPCT activity assay (MALDI-TOF MS, CD47 peptide substrate); settings: read-out: Inhibition of QPCT: IC50
T1 construct: purchased Origine (OriGene) TP700028
T1 sequence (Q16769 29-361): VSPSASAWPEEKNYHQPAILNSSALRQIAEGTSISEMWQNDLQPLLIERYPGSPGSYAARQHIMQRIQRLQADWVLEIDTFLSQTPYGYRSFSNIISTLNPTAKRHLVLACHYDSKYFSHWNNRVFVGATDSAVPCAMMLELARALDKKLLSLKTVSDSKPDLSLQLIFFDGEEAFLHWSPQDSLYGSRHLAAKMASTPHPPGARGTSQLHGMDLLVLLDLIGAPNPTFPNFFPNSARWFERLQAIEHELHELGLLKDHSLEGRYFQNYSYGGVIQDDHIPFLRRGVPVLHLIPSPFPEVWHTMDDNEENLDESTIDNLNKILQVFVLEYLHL
Procedure: (§1) QPCT or QPCTL dependent conversion of N-terminal glutamine to pyroglutamate of CD47 was monitored via MALDI-TOF MS. Test compounds were dissolved in 100% DMSO and serially diluted into clear 1,536-well microtiter plates. Enzymatic reactions were set up in assay buffer containing 20 mM Tris pH 7.5, 0.1 mM TCEP, 0.01% BSA, and 0.001% Tween20. […] The plates were incubated for 10 min in a humidified incubator at 24° C. Subsequently, 2.5 μL of CD47 peptide substrate surrogate (^19[…]^33) was added to each well (final concentration: 10 μM for QPCTL/20 μM for QPCT). The plates were mixed for 30 sec at 1,000 rpm and subsequently incubated for 40 min in a humidified incubator at 24° C. […] The plates were sealed with an adhesive foil, mixed for 30 s at 1,000 rpm and stored at room temperature until preparation of the MALDI target plates. MALDI target plates were prepared as described previously. […] QPCT or QPCTL activity was monitored by calculating the ratio between product and internal standard signals followed by normalization to high (100% activity) and low (0% activity) controls. Determination of compound potencies was obtained by fitting the dose-response data to a four-parameter logistical equation.

[1] = tested on: SIRPα signalling induced by Raji cells; assay: Assay B: SIRPα signalling assay using Raji cells; assay type: cell-based; settings: Homo sapiens, read-out: Inhibition of SIRPα signalling induced by Raji cells: IC50
Procedure: Bioassay reagent 1 of the PathHunter Bioassay detection kit (DiscoverX 93-0001) was added to each well of the plate using a multichannel pipette followed by a 15 min incubation at room temperature. Afterwards bioassay reagent 2 was added followed by 60 min incubation at room temperature (incubation in the dark).
The analysis of the data was performed using the luminescence signal generated by beta-galactosidase in the PathHunter reporter cell line. The luminescence measurement was done using a Pherastar Multi-Mode Reader.

CYP3A4 mRNA = assay: Assay D: CYP induction screening assay in primary human hepatocytes; assay type: in vitro ADME; settings: 48 h
Procedure: Cryopreserved plateable human hepatocytes (single donor. BioIVT) were thawed and plated in Collagen-I coated 96-well-plates at a cell density of 0.07 million cells per well.
After a 6 h attachment period, the seeding medium was replaced by serum-free William's medium E supplemented with Matrigel (0.25 mg/ml) and allowed to recover overnight. 24 h post-seeding, serum-free Williams E medium containing the test compound at a final concentration of […] and a final DMSO content of 0.1% and 0.1% DMSO (solvent-treated control), respectively, was added to predefined wells. Exposure solutions were renewed after 24 h.
After 48 h of treatment in total, the effect of the test compounds on CYP3A4 mRNA expression was assessed using the QuantiGene Plex Gene Expression Assay. Hepatocytes were lysed and total RNA was extracted using the QuantiGene Sample Processing Kit according to the instructions of the manufacturer.
mRNA quantification was conducted using a customized QuantiGene Plex Panel to analyse CYP3A4 and the housekeeper genes RPL32, EIF4E2 and GUSB according to the instructions of the manufacturer and measured on a Luminex™ instrument. Signal was reported as median fluorescence intensity (MFI), which is proportional to the number of target RNA molecules present in the sample.
For calculation of CYP3A4 mRNA induction, the signal for CYP3A4 was normalized against the geometric mean of the signal obtained for the housekeeper genes for hepatocytes exposed to test compounds in relation to solvent-treated samples according to the following equation: […]

[2] = tested on: SIRPα signalling induced by A549 cells; assay: Assay B: SIRPα signalling assay using A549 cells; assay type: cell-based; settings: Homo sapiens, read-out: Inhibition of SIRPα signalling induced by A549 cells: IC50
Procedure: Two cell types are independently used: the Raji cell line (lymphoblast-like human cell line derived from B lymphocytes from a Burkitt's lymphoma patient in 1963) and A549 cells (adenocarcinoma human alveolar basal epithelial cells).
Test compounds were dissolved in 100% DMSO and serially diluted into a white 384-well microtiter cell culture plate (PerkinElmer #60076780 in case of Raji assay; PDL-coated plates Greiner #781945 in case of A549 assay). 5000 Raji cells (ATCC #CC86) or 5000 A549 cells (ATCC #CCL-185) in Assay Complete Cell Plating reagent 30 (DiscoverX 93-0563R30B) were added per well. The assay plate was incubated for 48 h at 37° C., 95% humidity and 5% CO2. 15000 reporter cells (Jurkat PathHunter SIRPαV1, DiscoverX #93-1135C19) were added to each well, and the plate was incubated for 5 h at 37° C., 95% humidity and 5% CO2. Bioassay reagent 1 of the PathHunter Bioassay detection kit (DiscoverX 93-0001) was added to each well of the plate using a multichannel pipette followed by a 15 min incubation at room temperature. Afterwards bioassay reagent 2 was added followed by 60 min incubation at room temperature (incubation in the dark).
The analysis of the data was performed using the luminescence signal generated by beta-galactosidase in the PathHunter reporter cell line. The luminescence measurement was done using a Pherastar Multi-Mode Reader. Dose-response curves & IC50 data were calculated with 4-parameter sigmoidal dose response formula.

[3] = Assay C: permeability in CACO-2 cells; assay type: in vitro ADME; settings: human; for efflux ratio: read-out: Efflux Ratio
Procedure: Caco-2 cells (1-2×10^5 cells/1 cm^2 area) are seeded on filter inserts (Costar transwell polycarbonate or PET filters, 0.4 μm pore size) and cultured (DMEM) for 10 to 25 days. Compounds are dissolved in appropriate solvent (like DMSO, 1-20 mM stock solutions). […] The transport solution (TL) is applied to the apical or basolateral donor side for measuring A-B or B-A permeability (3 filter replicates), respectively. Samples are collected at the start and end of experiment from the donor and at various time intervals for up to 2 hours also from the receiver side for concentration measurement by HPLC-MS/MS or scintillation counting. Sampled receiver volumes are replaced with fresh receiver solution.
Efflux ratio (ER)=permeability B−A/permeability A−B

QPCTL = target: T2, QPCTL (Homo sapiens, UniProt Q9NXS2); assay: Assay A: biochemical QPCTL activity assay (MALDI-TOF MS, CD47 peptide substrate); settings: read-out: Inhibition of QPCTL: IC50
T2 construct: made in house
T2 sequence (Q9NXS2 whole entry, species assumed): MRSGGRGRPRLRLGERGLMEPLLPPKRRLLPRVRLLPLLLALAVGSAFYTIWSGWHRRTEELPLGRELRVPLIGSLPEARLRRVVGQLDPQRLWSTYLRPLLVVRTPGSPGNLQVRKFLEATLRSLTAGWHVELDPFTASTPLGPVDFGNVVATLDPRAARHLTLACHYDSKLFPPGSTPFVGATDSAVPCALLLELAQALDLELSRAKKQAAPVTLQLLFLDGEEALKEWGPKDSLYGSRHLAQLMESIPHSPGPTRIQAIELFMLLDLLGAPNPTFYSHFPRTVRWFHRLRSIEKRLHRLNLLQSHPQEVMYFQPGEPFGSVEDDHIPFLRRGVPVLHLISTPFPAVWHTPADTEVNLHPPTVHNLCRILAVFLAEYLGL
Procedure: as §1

murine hepatocytes = assay: Assay E: stability in murine hepatocytes; assay type: in vitro ADME, mouse; settings: 1 μM, 5% species serum
Procedure: The metabolic degradation of the test compound is assayed in a murine hepatocyte suspension.
Murine hepatocytes (typically cryopreserved) are incubated in an appropriate buffer system (e.g. Dulbecco's modified eagle medium plus 3.5 μg glucagon/500 mL, 2.5 mg insulin/500 mL and 3.75 mg/500 mL hydrocortison) containing 5% species serum.
Following a (typically) 30 min preincubation in an incubator (37° C., 10% CO2) 5 μl of test compound solution (80 μM; from 2 mM in DMSO stock solution diluted 1:25 with medium) are added into 395 μl hepatocyte suspension (cell density in the range 0.25-5 Mio cells/mL, typically 1 Mio cells/mL; final concentration of test compound 1 μM, final DMSO concentration 0.05%).
The cells are incubated for six hours (incubator, orbital shaker) and samples (25 μl) are taken at 0, 0.5, 1, 2, 4 and 6 hours. Samples are transferred into acetonitrile and pelleted by centrifugation (5 min). The supernatant is transferred to a new 96-deepwell plate, evaporated under nitrogen and resuspended.
Decline of parent compound is analyzed by HPLC-MS/MS
CLint is calculated as follows CL_[…]=Dose/AUC=(C0/CD)/(AUD+clast/k)×1000/60. C0: initial concentration in the incubation [μM], CD: cell density of vital cells [10e6 cells/mL], AUD: area under the data [μM×h], clast: concentration of last data point [μM], k: slope of the regression line for parent decline [h−1].
The calculated in vitro hepatic intrinsic clearance can be scaled up to the intrinsic in vivo hepatic Clearance and used to predict hepatic in vivo blood clearance (CL) by the use of a liver model (well stirred model).
[formula] [formula] [formula] • Hepatocellularity, mouse: 120×10e6 cells/g liver • Liver factor, mouse: 55 g/kg bodyweight • Blood flow, mouse: 90 ml/(min×kg)

[4] = Table 2, compounds of the invention
[5] = Table 4, compounds of the invention
[6] = Table 9, compounds of the invention
[7] = pH 7.2, Table 7, compounds of the invention, CACO-2 cells
[8] = pH 7.2, Table 7, compounds of the invention, CACO-2 cells, permeability B-A/permeability A-B
[9] = Table 12, compounds of the invention

Cn1cnnc1C1CCN(c2c(C#N)cccc2-c2cncc3c2cnn3C)CC1 [Compound 4, reference compound]
IC50 (QPCT; Table 3, prior art compounds): 313 nM
IC50 ([1]; Table 5, prior art compounds): > 10000 nM
n-fold induction of CYP3A4 at 10 μM (CYP3A4 mRNA; Table 10, prior art compounds): 0.8 n-fold
IC50 ([2]; Table 5, prior art compounds): 4500 nM
Papp A→B ([3]; Caco-2, pH 7.2): 0.3 ×10⁻⁶ cm/s
efflux ratio ([3]; Caco-2, pH 7.2): 28.1
IC50 (QPCTL; Table 3, prior art compounds): 97 nM
Mouse Hepatocyte Stability QH (murine hepatocytes; Table 13, prior art compounds): 92%

Cn1cnnc1C1CCN(c2c(C#N)cccc2-c2ccc3ocnc3c2)CC1 [Compound 15, reference compound]
IC50 (QPCT; Table 3, prior art compounds): 1080 nM
IC50 ([1]; Table 5, prior art compounds): 5990 nM
n-fold induction of CYP3A4 at 10 μM (CYP3A4 mRNA; Table 10, prior art compounds): 8.7 n-fold
IC50 ([2]; Table 5, prior art compounds): 3150 nM
Papp A→B ([3]; Caco-2, pH 7.2): 11 ×10⁻⁶ cm/s
efflux ratio ([3]; Caco-2, pH 7.2): 5.4
IC50 (QPCTL; Table 3, prior art compounds): 554 nM
Mouse Hepatocyte Stability QH (murine hepatocytes; Table 13, prior art compounds): 65%

Cn1cnnc1C1CCN(c2c(C#N)cccc2-c2ccc3nonc3c2)CC1 [Compound 19, reference compound]
IC50 (QPCT; Table 3, prior art compounds): 106 nM
IC50 ([1]; Table 5, prior art compounds): 2810 nM
n-fold induction of CYP3A4 at 10 μM (CYP3A4 mRNA; Table 10, prior art compounds): 15.8 n-fold
IC50 ([2]; Table 5, prior art compounds): 296 nM
Papp A→B ([3]; Caco-2, pH 7.2): 19 ×10⁻⁶ cm/s
efflux ratio ([3]; Caco-2, pH 7.2): 3.4
IC50 (QPCTL; Table 3, prior art compounds): 117 nM
Mouse Hepatocyte Stability QH (murine hepatocytes; Table 13, prior art compounds): 62%

Cn1cnnc1C1CCN(c2c(C#N)cccc2-c2cnc3cn[nH]c3c2)CC1 [Compound 125, reference compound]
IC50 (QPCT; Table 3, prior art compounds): 446 nM
IC50 ([1]; Table 5, prior art compounds): 4490 nM
n-fold induction of CYP3A4 at 10 μM (CYP3A4 mRNA; Table 10, prior art compounds): 2.1 n-fold
IC50 ([2]; Table 5, prior art compounds): > 10000 nM
Papp A→B ([3]; Caco-2, pH 7.2): 0.6 ×10⁻⁶ cm/s
efflux ratio ([3]; Caco-2, pH 7.2): 30.4
IC50 (QPCTL; Table 3, prior art compounds): 159 nM
Mouse Hepatocyte Stability QH (murine hepatocytes; Table 13, prior art compounds): 45%

Cn1cnnc1C1(F)CCN(c2c(C#N)cc(C3CC3)nc2-c2ccnnc2)CC1 [Example 1]
IC50 (QPCT; [4]): 2 nM
IC50 [1, 5]: 107 nM
n-fold induction of CYP3A4 at 10 μM (CYP3A4 mRNA; [6]): 1.2 n-fold
IC50 [2, 5]: 15 nM
Papp A→B [3, 7]: 6.3 ×10⁻⁶ cm/s
efflux ratio [3, 8]: 7
IC50 (QPCTL; [4]): 1 nM
Mouse Hepatocyte Stability QH (murine hepatocytes; [9]): 49%

Cn1cnnc1C1(F)CCN(c2c(C#N)cc(C3CC3)nc2-c2cnc3nn(C(F)(F)F)cc3c2)CC1 [Example 2]
IC50 (QPCT; [4]): 1 nM
IC50 [1, 5]: 20 nM
n-fold induction of CYP3A4 at 10 μM (CYP3A4 mRNA; [6]): 4.6 n-fold
IC50 [2, 5]: 14 nM
Papp A→B [3, 7]: 37 ×10⁻⁶ cm/s
efflux ratio [3, 8]: 1.6
IC50 (QPCTL; [4]): 1 nM
Mouse Hepatocyte Stability QH (murine hepatocytes; [9]): 49%

Cn1cnnc1C1(F)CCN(c2c(C#N)cc(C(F)(F)F)nc2-c2cc3cn(C(C)(C)C)nc3nc2C(F)F)CC1 [Example 14]
IC50 (QPCT; [4]): 11 nM
IC50 [1, 5]: 117 nM
IC50 [2, 5]: 44 nM
Papp A→B [3, 7]: 14 ×10⁻⁶ cm/s
efflux ratio [3, 8]: 5.3
IC50 (QPCTL; [4]): 28 nM
Mouse Hepatocyte Stability QH (murine hepatocytes; [9]): <12%

Cn1cnnc1C1(F)CCN(c2c(C#N)cc(C(F)(F)F)nc2-c2cnc3nn(C(C)(C)C)c(C(F)F)c3c2)CC1 [Example 16]
IC50 (QPCT; [4]): 1 nM
IC50 [1, 5]: 11 nM
n-fold induction of CYP3A4 at 10 μM (CYP3A4 mRNA; [6]): 6.0 n-fold
IC50 [2, 5]: 17 nM
Papp A→B [3, 7]: 34 ×10⁻⁶ cm/s
efflux ratio [3, 8]: 1.8
IC50 (QPCTL; [4]): 3 nM

Cn1cncc1C1CCN(c2c(C#N)cccc2-c2ccc(F)nc2)CC1 [QP5038, reference compound]
IC50 ([1]; Table 5, prior art compounds): 21 nM
n-fold induction of CYP3A4 at 10 μM (CYP3A4 mRNA; Table 10, prior art compounds): 58.5 n-fold
IC50 ([2]; Table 5, prior art compounds): 6 nM
Mouse Hepatocyte Stability QH (murine hepatocytes; Table 13, prior art compounds): 97%
